Values joined by “and” are separate entries in the source; they are usually repeats but may differ in a detail not shown here. Equal entries are not always repeated. Where two headings read alike, the source gives them in different places.
How the values were obtained:
[1] = biological target: T1, SARS-CoV-2 NSP3 macrodomain (Mac1) (Severe acute respiratory syndrome coronavirus 2, UniProt P0DTD1); format: binding; conditions: for Total number of conformations: ligand conformations modeled in the crystal structure; for 2*(1-BDC) (%): occupancy estimate from PanDDA
[2] = biological target: T1, SARS-CoV-2 NSP3 macrodomain (Mac1); experiment: biochemical; format: binding
[3] = PanDDA background density correction factor
[4] = TRUE = crystal structure with ligand obtained
[5] = crystal soak 10 mM, P43 crystal form
[6] = crystal soak 10 mM, DMSO background map
[7] = refined crystallographic occupancy
[8] = site of ligand in X-ray crystal structure
[9] = ligand-bound crystal structure obtained (TRUE)
[10] = site occupied in X-ray crystal structure
[11] = HTRF binding curve, SARS-CoV-2 Mac1
[12] = SARS CoV-2 macrodomain HTRF assay, dose-response
[13] = PanDDA background density correction, 1-BDC
[14] = crystal soak concentration 10 mM, DMSO background map
[15] = crystal soak concentration 10 mM, P43 crystals

SMILES | 2*(1-BDC) (%) [1] [%] | X-ray crystal structure [1, 9] | Binding site [1, 10] | Hill slope [2, 11] | Hill slope [2, 12] | 1-BDC [1, 13] | Refined ligand occupancy (%) ([1]; crystallographic refinement) | further results
C[C@@H](O)[C@H](CO)Nc1ncnc2[nH]ccc12.O=C(O)C(F)(F)F [AVI-3730] | 28 | – | – | – | – | – | – | Occupancy difference (refined_occupancy - 2*(1-BDC)) [1]: 0; 1-BDC [1, 3]: 0.14; X-ray crystal structure [1, 4]: TRUE; PanDDA run, overall: Hit [1, 5]: TRUE; PanDDA run, DMSO background map: 1-BDC [1, 6]: 0.14; PanDDA run, DMSO background map: Hit [1, 6]: TRUE; Total number of conformations [1]: 1; Refined ligand occupancy (%) [1, 7]: 28%; Binding site [1, 8]: Adenosine
Cc1nn(C)cc1C1CC[C@H](CO)N1c1ncnc2[nH]ccc12 (some centres unmarked) [AVI-3733] | 20 | TRUE | Adenosine | – | – | – | – | Occupancy difference (refined_occupancy - 2*(1-BDC)) [1]: 20; 1-BDC [1, 3]: 0.1; PanDDA run, overall: Hit [1, 5]: TRUE; PanDDA run, overall: Modeled [1, 5]: TRUE; PanDDA run, DMSO background map: 1-BDC [1, 6]: 0.1; PanDDA run, DMSO background map: Hit [1, 6]: TRUE; Total number of conformations [1]: 1; Refined ligand occupancy (%) [1, 7]: 40%
OCC1CCC2(CCOCC2)CN1c1ncnc2[nH]ccc12 (centres unmarked) [AVI-4065] | – | – | – | 1.2 | 1.2 | – | – | –
OC1(CNc2ncnc3[nH]ccc23)CCC2(CC1)OCCO2 [AVI-4315] | – | – | – | 1.2 | 1.2 | – | – | –
CC(Nc1ncnc2[nH]ccc12)C1(O)CCCCC1 (centres unmarked) [AVI-4321] | – | – | – | 1.2 | 1.2 | – | – | –
Cc1c[nH]c2ncnc(NCC3(O)CCC(O)CC3)c12 (centres unmarked) [AVI-4329] | 18 | TRUE | Adenosine | – | – | 0.09 | 30 | Hit (PanDDA run, DMSO background map) [1, 14]: TRUE; Modeled (PanDDA run, DMSO background map) [1, 14]: TRUE; 1-BDC (PanDDA run, DMSO background map) ([1]; crystal soak concentration 10 mM, DMSO background map, event 1): 0.09 and 0.11; Hit (PanDDA run, overall) [1, 15]: TRUE; Modeled (PanDDA run, overall) [1, 15]: TRUE; Modeling comment (PanDDA run, overall) [1, 15]: Duplicate, not modeled
CC(O)C(C)Nc1ncnc2[nH]ccc12 (centres unmarked) [AVI-5158] | 34 | – | – | – | – | 0.17 | 34 | X-ray crystal structure [1, 4]: TRUE; Binding site [1, 8]: Adenosine
CC(C)C1CCCN1c1ncnc2[nH]ccc12 (centres unmarked) [AVI-5216] | 26 | TRUE | Adenosine | – | – | 0.13 | 40 | –
CC(C)(C)C1CCCN1c1ncnc2[nH]ccc12 (centres unmarked) [AVI-6000] | 14 | TRUE | Adenosine | – | – | 0.07 | 14 | –
